Patent publication US11202792B2, “CD99 inhibitors and their uses” (GEORGETOWN UNIVERSITY, priority 2016, dated 2021)
Read-outs that look alike come from different tables or passages of the source.

Tests used:
[1] = system: non-ES cell lines; assay: Cell viability IC50 panel, non-ES cell lines; format: cell-based; conditions: 48 h; highest concentration tested (10 or 30 μmol/L) used for resistant lines; unit not printed with values
Procedure: (§1) The plate was installed into the RTCA system, and the electrical impedance (represented as cell index) was measured every 10 min.
Therefore, two leukemia cell lines, MOLT-4 and Jurkat, were included as positive controls in this experiment.

[2] = system: RDES ES cells; assay: Cell viability IC50, RDES; format: cell-based; conditions: Homo sapiens, RD-ES
[3] = system: TC-71 ES cells; assay: Cell viability IC50, TC-71; format: cell-based, human; conditions: for IC50: Homo sapiens; for Fold changes in IC50: TC-71 parental cells, mean ± SD
[4] = system: IOR/CAR ES cells; assay: Cell viability IC50, IOR/CAR; format: cell-based; conditions: Homo sapiens
Procedure: as §1
(§2) To investigate the relationship between the level of CD99 expression and drug sensitivity, the endogenous expression of CD99 was determined in a panel of 9 ES and 13 non-ES cell lines. The recombinant purified CD99-ECD protein was used to generate standard curves for immunoquantification of CD99 expression by immunoblotting (FIGS. 6B and 6C).

[5] = system: IOR/OS10 OS cells; assay: Cell viability IC50, IOR/OS10; format: cell-based; conditions: Homo sapiens
Procedure: as §1, §2

[6] = system: IOR/OS9 OS cells; assay: Cell viability IC50, IOR/OS9; format: cell-based; conditions: Homo sapiens
Procedure: as §1, §2

[7] = system: U-2-OS OS cells; assay: Cell viability IC50, U-2-OS; format: cell-based; conditions: Homo sapiens, U2OS
Procedure: as §1, §2

[8] = system: MG63 OS cells; assay: Cell viability IC50, MG63; format: cell-based; conditions: Homo sapiens, MG-63
Procedure: as §1, §2

[9] = system: IOR/MOS OS cells; assay: Cell viability IC50, IOR/MOS; format: cell-based; conditions: Homo sapiens
Procedure: as §1, §2

[10] = system: RH30 rhabdomyosarcoma cells; assay: Cell viability IC50, RH30; format: cell-based; conditions: Homo sapiens; RH30 (RM)
Procedure: as §1, §2

[11] = system: RH4 rhabdomyosarcoma cells; assay: Cell viability IC50, RH4; format: cell-based; conditions: Homo sapiens, RH4 (RM)
Procedure: as §1, §2

[12] = target: T1, CD99 homodimers in STA-ET-7.2 ES cells (Homo sapiens, UniProt P14209); assay: Chemical cross-linking with BS3, CD99 homodimer formation; format: cell-based; conditions: 5 μmol/L, 1 h, then 1 mmol/L BS3; STA-ET-7.2 cells
T1 construct: STA-ET-7.2 ES cells, which express the highest level of CD99 protein among all ES cell lines; endogenous in cells; host or cells: STA-ET-7.2
T1 sequence (P14209 23-185): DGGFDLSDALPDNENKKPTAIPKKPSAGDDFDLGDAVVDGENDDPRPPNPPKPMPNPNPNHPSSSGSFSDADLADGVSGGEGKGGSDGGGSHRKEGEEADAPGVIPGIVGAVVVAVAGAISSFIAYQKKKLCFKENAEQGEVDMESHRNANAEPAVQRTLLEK
Procedure: The cells were rinsed 3 times with ice-cold PBS, and treated with 1 mmol/L BS^3 (Thermo Scientific) in PBS for 10 min at 37° C. according to manufacturer's instructions. […] Protein samples were then prepared by lysing the cross-linked cells in a lysis buffer as described above.
To address this, in a chemical cross-linking assay, STA-ET-7.2 ES cells were preincubated with the inhibitors for 1 h at a final concentration of 5 μmol/L followed by the addition of 1 mmol/L BS^3, a membrane-impermeable chemical cross-linking agent.

[13] = system: 6647 and TC-71 ES cells; assay: Transwell cell migration assay; format: cell-based, human; conditions: 24 h pre-treatment; cladribine 1 or 3 μmol/L, clofarabine 0.3 or 0.5 μmol/L
Procedure: Immunoblot analysis was performed on total cell lysates for ROCK2 and GAPDH expression. In FIG. 8B, TC-71 control and TC-CD99-shRNA #2 cells were treated with either drug at indicated concentrations for 1, 3 and 6 h. Immunoblot analysis was performed on total cell lysates for ROCK2 and GAPDH expression. In FIG. 8C, cell migration experiments were performed using Boyden chamber transwell migration assay with 10% serum serving as the chemoattractant in the lower chamber. […] The number of migrated cells was then quantified by counting the cells in the bottom chamber under the microscope. Asterisks indicate statistically significant differences between treatments (*p<0.05; vs. control using a Student's unpaired t test).
Motility assay was done using Trans-well chambers (Costar; Corning (Corning, N.Y.)) according to manufacturer's instructions.

[14] = system: TC-71 xenografts; assay: Orthotopic TC-71 xenograft, i.p. administration; format: in vivo, SCID/beige mice; conditions: clofarabine 30 mg/kg, cladribine 20 mg/kg; for event-free survival: i.p. once daily 14 days, vs vehicle; for tumor growth: i.p.
Procedure: The antitumor activity of drugs through intraperitoneal (i.p.) administration given once daily was determined. […] The in vivo potencies of drug treatments were evaluated by event-free survival curves, where tumors that reached 1.0 cm^3 in size considered an event.

[15] = system: TC-71, 6647 and RDES ES cells; assay: Cell cycle and cell death analysis by flow cytometry, ES cells; format: cell-based, human; conditions: 48 h; for hypodiploid sub-G1 peak: only in ES cells compared with U-2 OS
Procedure: For the evaluation of cell cycle, cell cultures were incubated with 10 μmol/L bromodeoxyuridine (BrdU) (Sigma-Aldrich) for 1 h in a CO2 atmosphere at 37° C. Harvested cells were fixed in ice-cold 70% ethanol for 30 min. After DNA denaturation with 2 N HCl for 30 min at room temperature, cells were washed with 0.1 M Na2B4O7, pH 8.5 and processed for indirect immunofluorescence staining, using α-BrdU (BD Biosciences (San Jose, Calif.)) diluted 1:4 as a primary MAb and α-mouse FITC (1:100—Thermo Scientific (Waltham, Mass.)) as a secondary antibody. After treatment with 0.5 mg/ml RNase and staining with 20 μg/ml propidium iodide, cells were and analyzed by flow cytometry (FACSCalibur; Becton Dickinson (Franklin Lakes, N.J.)) for cell cycle evaluation and for assessing cell death by DNA content analysis.

[16] = system: ES cell lines RDES and TC-71; assay: Secondary functional screen, growth inhibition in ES cell lines; format: cell-based; conditions: Homo sapiens; 10 μmol/L, 48 h, WST-1
[17] = system: U-2 OS cells; assay: Secondary functional screen, negative control cell line; format: cell-based; conditions: Homo sapiens, U2OS; 10 μmol/L, 48 h, WST-1; read-out: growth inhibition of OS cell lines (U-2 OS)

| SMILES | IC50 [1] [µM] | IC50 [2] [µM] | IC50 ([3]; TC-71 (ES), Table 1) [µM] | Fold changes in IC50 [3] | IC50 [4] [µM] | IC50 [5] [µM] | IC50 [6] [µM] | IC50 [7] [µM] | IC50 [8] [µM] | IC50 [9] [µM] | IC50 [10] [µM] | IC50 [11] [µM] | formation of CD99 homodimers [12] | number of migrated cells [13] | event-free survival [14] | tumor growth [14] | hypodiploid sub-G1 peak [15] | further results |
| --- | --- | --- | --- | --- | --- | --- | --- | --- | --- | --- | --- | --- | --- | --- | --- | --- | --- | --- |
| Nc1nc(Cl)nc2c1ncn2[C@H]1C[C@H](O)[C@@H](CO)O1 [cladribine] | ≥ 20.1 | 0.66 | 0.5 | 1.02 ± 0.27 (n = 5) | 0.66 | 11.4 | > 30 | > 30 | > 30 | > 30 | 3.26 | > 30 | significantly reduced | significantly decreased | significantly different | grew slower | significant increase | cell cycle effect ([15]; ES cells): cell cycle arrest in S phase; total body weight (mouse, in vivo): does not change |
| Nc1nc(Cl)nc2c1ncn2[C@@H]1O[C@H](CO)[C@@H](O)[C@@H]1F [clofarabine] | ≥ 13.7 | 0.49 | 0.15 | 1.10 ± 0.38 (n = 8) | 0.29 | 1.37 | > 10 | > 30 | > 10 | > 10 | > 10 | > 10 | blocked | significantly decreased | not statistically significant | significant inhibition of tumor growth | significant increase | inhibition at 10 µM [16]: ≥ 70%; inhibition at 10 µM [17]: ≤ 10%; IC50 ([3]; TC-71 cells, WST-1, 48 h (FIG. 10B)): 0.15 µM; event-free survival ([14]; listed as Clofarabine): significantly improved; tolerability (TC-71 and SKES xenograft models, clofarabine 30 mg/kg in TC-71): early deaths; total body weight (weighed daily during treatment): does not change |
